This is an account of results in patent US20250241313A1, “APPLICATION OF ACTIVE SUBSTANCE IN IMPROVING SEED VIGOR AND METHOD FOR IMPROVING SEED VIGOR” (HUNAN HYBRID RICE RESEARCH CENTER, priority 2024, published 2025).

Common to all, as to assay type: in vivo
The test system of one assay is rice seeds. Put plainly: Rice seed germination (seed vigor) after seed soaking. How it is done:
(§1) In the following examples, the relative activity index is calculated by the following formula: • (1) average germination rate: ×100% (total number of germinated seeds/total number of tested seeds within 7 days); • (2) average germination potential: ×100% (total number of germinated seeds/total number of tested seeds in the first 5 days); • (3) average germination index: Σ(number of sprouts per day/[…]); • (4) statistical P-value: generally, X represents the statistical quantity of the test, and when H0 is true, the value C of the statistical quantity can be calculated from the sample data, and the P value can be obtained from the specific distribution of the test statistical quantity X. Specifically, the P value of the left test is the probability that the test statistic X is smaller than the sample statistic C, i.e.: P=P {X<C} the P value for the right-side test is the probability that the test statistic X is greater than the sample statistic C: P=P {X>C} the P value of the two-sided test is 2 times the probability that the test statistic X falls within the tail region where the sample statistic C is an endpoint: P=2P {X>C} (when C is located at the right end of the distribution curve) or P=2P {X<C} (when C is located at the left end of the distribution curve) if X obeys a normal distribution and a t-distribution, the distribution curve is symmetric about the vertical axis, so its P value can be represented as P=P {|X|>C}; • after the P-value has been calculated, a test can be concluded by comparing a given significance level a to the P-value: rejecting the original hypothesis if a>P value; if a≤P value, the original assumption is accepted at significance level a. […]

For the next assay, the system named is wheat seeds. Put plainly: Wheat seed germination (seed vigor) after seed soaking. Particulars: for Average germination index / average germination potential / Average germination rate: wheat seeds soaked 24 hours in 0.3 mM aqueous solution; for average germination potential: first 5 days; for Average germination rate: within 7 days. As for the experimental part: as §1

A further assay deals with tomato seeds. Put plainly: Tomato seed germination (seed vigor) after seed soaking. Particulars: for Average germination index / average germination potential / Average germination rate: tomato seeds soaked 24 hours in 0.3 mM aqueous solution; for average germination potential: first 5 days; for Average germination rate: within 7 days. As for the experimental part: as §1

A further assay concerns corn seeds. Put plainly: Corn seed germination (seed vigor) after seed soaking. The following applies: for Average germination index / average germination potential / Average germination rate: corn seeds soaked 24 hours in 0.3 mM aqueous solution; for average germination potential: first 5 days; for Average germination rate: within 7 days. As for the experimental part:
as §1

The test system of a further assay is tobacco seeds. Put plainly: Tobacco seed germination (seed vigor) after seed soaking. Particulars: for Average germination index / average germination potential / Average germination rate: tobacco seeds soaked 24 hours in 0.3 mM aqueous solution; for average germination potential: first 5 days; for Average germination rate: within 7 days. As for the experimental part:
as §1

Where [1] appears, read: rice seeds soaked 24 hours in 0.3 mM aqueous solution.
[2] abbreviates: rice seeds soaked 24 hours in 0.3 mM aqueous solution, germinated in the first 5 days.
Setting [3] is: rice seeds soaked 24 hours in 0.3 mM aqueous solution, germinated within 7 days, 3 parallel groups.

With `C=C(OP(=O)(O)O)C(=O)O` [PEP, phosphoenolpyruvate], the Average germination index in the assay on rice seeds (setting [1]) is 11.04; in the assay with rice seeds (rice seeds, 0.09 mM aqueous solution) it was 8.43; in the assay with rice seeds (rice seeds, 0.2 mM aqueous solution), 11.04; in the assay on wheat seeds, 6.367; with tomato seeds, 9.783; with corn seeds, 14.2 ^. For the same compound, the Average germination index with tobacco seeds turned out to be 12.78. For the same compound, the average germination potential in the assay on rice seeds (setting [2]) stood at 66%; in the assay on rice seeds (rice seeds, 0.09 mM aqueous solution, first 5 days), 61%; in the assay with rice seeds (rice seeds, 0.2 mM aqueous solution, first 5 days), 66%; in the assay on wheat seeds, 24%; in the assay on tomato seeds it was 59%; in the assay with corn seeds it was 70%. The same compound gave an average germination potential with tobacco seeds of 64%. Besides, the Average germination rate came to 72% with rice seeds (setting [3]); 63% with rice seeds (rice seeds, 0.09 mM aqueous solution, within 7 days); 72% with rice seeds (rice seeds, 0.2 mM aqueous solution, within 7 days); 24% with wheat seeds; 60% in the assay with tomato seeds; 68% in the assay on corn seeds. Also, the Average germination rate in the assay on tobacco seeds worked out at 70%. For the same compound, the “germination condition and root system / leaf growth versus water control (FIG. 1-3)” value in the assay with rice seeds (rice seeds, 0.3 mM, day 4 and day 7) was “significantly accelerate the growth of the root system and leaf of rice seeds”. Moreover, the “germination condition and root growth versus water control (FIG. 4-5)” value with wheat seeds (wheat seeds, 0.3 mM, day 7) is listed as “the root growth of the wheat seeds can be accelerated”. The “germination condition and root system growth versus water control (FIG. 8)” value in the assay with tomato seeds (tomato seeds, 0.3 mM, day 7) was “the root system growth of the tomato seeds can be accelerated”. For the same compound, the “germination condition and root growth versus water control (FIG. 6-7)” value in the assay on corn seeds (corn seeds, 0.3 mM, day 7) is “the root growth of the corn seeds can be accelerated”. Further, the “germination condition and root system growth versus water control (FIG. 9)” value in the assay on tobacco seeds (tobacco seeds, 0.3 mM, day 7) was “the root system growth of the tobacco seeds can be accelerated”.
`C=C(OP(=O)([O-])O)C(=O)O.[K+]` [PEP-K salt, potassium phosphoenolpyruvate]: the Average germination index is given as 10.76 in the assay with rice seeds (setting [1]); 10.76 in the assay on rice seeds (rice seeds, 0.5 mM aqueous solution); 6.333 with wheat seeds; 10.73 in the assay with tomato seeds; 14.5 ^ in the assay on corn seeds; 11.83 in the assay on tobacco seeds. Moreover, the average germination potential with rice seeds (setting [2]) worked out at 64%; in the assay on rice seeds (rice seeds, 0.5 mM aqueous solution, first 5 days), 64%; with wheat seeds, 21%; with tomato seeds, 64%; in the assay with corn seeds, 70%; in the assay with tobacco seeds, 64%. In addition, the Average germination rate is reported as 68% in the assay with rice seeds (setting [3]); 68% in the assay with rice seeds (rice seeds, 0.5 mM aqueous solution, within 7 days); 22% with wheat seeds; 65% in the assay on tomato seeds; 68% with corn seeds; 66% in the assay with tobacco seeds.
`C=C(OP(=O)(O)O)C(=O)O.NC1CCCCC1` [PEP-cyclohexylammonium salt, cyclohexylammonium phosphoenolpyruvate]: the Average germination index in the assay on rice seeds (setting [1]) is on record as 10.82; with rice seeds (rice seeds, 1.1 mM aqueous solution), 9.82; in the assay with wheat seeds it was 5.067; in the assay with tomato seeds, 10.23; with corn seeds, 10.25 ^; in the assay on tobacco seeds, 10.53. Further, the average germination potential in the assay with rice seeds (setting [2]) was 66%; in the assay on rice seeds (rice seeds, 1.1 mM aqueous solution, first 5 days) it was 64%; in the assay with wheat seeds, 19%; in the assay on tomato seeds, 65%; in the assay on corn seeds, 60%; with tobacco seeds, 65%. The Average germination rate with rice seeds (setting [3]) turned out to be 70%; in the assay with rice seeds (rice seeds, 1.1 mM aqueous solution, within 7 days), 62%; in the assay with wheat seeds, 21%; with tomato seeds, 66%; in the assay with corn seeds, 58%; in the assay on tobacco seeds it was 68%.
